Experimental data taken from US6946475B1, “Anticancer calcium channel blockers” (University of Virginia Patent Foundation, priority 1999, dated 2005).
Where two headings read alike, the source gives them in different places.

Columns and labels:
[1] = system: PC3 prostate cancer cells; assay: Measurement of cellular proliferation, PC3 cells; type: cell-based, human
Procedure: (§1) Measurement of cellular proliferation: LNCaP cells at 2.5×10^4/well or PC3 cells at 5×10^4/well, both in a final volume of 100 μl, were plated in triplicate in standard flat bottom 96 well tissue culture plates in the presence of drug or vehicle (DMSO). Unless otherwise indicated, cells were grown for 48 hours at 37° C. in a CO2 incubator. Relative cell growth was determined with the CellTiter 96 aqueous cell proliferation assay (Promega, Madison, Wis.) as described by the manufacturer using an automated plate reader. Results were calculated in a blinded fashion and are means of triplicate determinations.
(§2) For the 48 hour proliferation, cells were cultured with calcium channel antagonists or without calcium channel antagonists. The IC50 values of the calcium channel antagonists were determined.
(§3) Using the measurement cell proliferation assay described hereinabove, the cell lines Jurkat, LNCap (prostate cancer cell), PC-31 (prostate cancer cell), DU145 (prostate cancer cell), MDA-468 (breast cancer cell), MDA-36 (Breast cancer cell), MCF-7 (breast cancer cell), MIA PaCa-2 (pancreatic cancer cell), Hep G2 (liver cancer cell), A549 (non-small cell lung cancer cells), NCI H460 (non-small cell lung cancer cells), HT-29 (colon cancer cell), HCT-116 (colon cancer cell) and SK OV-3 (ovarian cancer cell) were cultured in the presence of TH-1177, TH-1205, TH-1201, TH-2109, TH-2029, TH-2043, TN-2085 and TH-2279.

[2] = system: Ca2+ entry in LNCaP cells; assay: Measurement of intracellular Ca2+ concentration (Ca2+ entry), LNCaP cells; type: cell-based, human
Procedure: Cells were incubated in growth media containing 1 μM of the acetoxy-methyl ester of the Ca^2+-sensitive fluorescent dye indo-1 (indo-1/AM, Molecular Probes, Eugene, Oreg.) for 1 hour at 37° C. Cells were washed three times in buffer A (10 mM HEPES, pH 7.4, 1 mM MgCl2, 3 mM KCl, 1 mM CaCl2, 140 mM NaCl, 0.1% glucose, 1% fetal bovine serum) and suspended to a final concentration of 10^6/ml. Prior to stimulation, cells were warmed to 37° C. Prior to stimulation, cells were also incubated with drug, calcium channel antagonists and the IC50 values were determined. Changes in [Ca^2+] were monitored in an SLM 8100C spectrofluorometer (SLM/Aminco, Urbana, Ill.) using previously published methods, Haverstick, et al. (1998) Cell Calcium, 23: 361-368; Densmore, et al. (1996) Am. J. Physiol., 271:C1494-1503, incorporated herein by reference.
Calcium influx into the cell is suitably stimulated using either (1) a physiological ligand or (2) an endoplasmic reticulum (ER) ATPase inhibitor. Preferably, a physiological ligand is used to stimulate calcium influx into the cell.
Endoplasmic Reticulum (ER) ATPase inhibitor, as used herein, is any compound which stimulates the release of calcium from the endoplasmic reticulum into the cytoplasm, which, in turn, activates calmodulin, which, in turn, activates calcium entry into the cell (for review of ER ATPase inhibitors, see Thastrup, O, Agents and Actions (1990), 29:8-15; Inesi and Sagara, Archives of Biochem. and Biophys., 298:313-7 and Darby, et al., Biological Signals (1993), 2:293-304). Preferred ER ATPase inhibitors include cyclopiazonic acid (available from Sigma, St. Louis, Mo.) and thapsigargin (available from Sigma).
TH-1177 blocked capacitative Ca^2+ entry in human prostate cancer cells. In electrically non-excitable cells, Ca^2+ influx is triggered by release of Ca^2+ from its internal storage depot by a phenomenon that has been called “capacitative”Ca^2+ entry (Putney, J. W., Jr. (1986) Cell Calcium, 7:1-12; Haverstick, et al. (1993) Mol. Biol. Cell, 4: 173-184; Kohn, et al. Proc. Natl. Acad. Sci. USA, 92: 1307-1311, incorporated herein by reference). Capacitative entry can be initiated by treatment of cells with thapsigargin. Thapsigargin inhibits the Ca^2+-ATPase of the endoplasmic reticulum allowing uncompensated leak of Ca^2+ from this compartment into the cytosol thereby causing Ca^2+ entry in the absence of engagement of a specific receptor. (Thastrup, et al. (1990) Proc. Natl. Acad. Sci. USA, 87: 2466-2470; Takemura, et al. (1989) J. Biol. Chem. 264: 12266-12271, incorporated herein by reference).
The P2 purinergic receptor is linked to activation of the Ca^2+ entry pathway in many types of cells including prostate cancer cells (Fang, et al. (1992) J. Clin. Invest. 89: 191-196). […]

[3] = system: NCI H460 (non-small cell lung cancer cells); assay: Measurement of cellular proliferation, NCI H460 cells; type: cell-based; conditions: NCI H460, 48 hours; read-out: PROLIFERATION IC50 NCl H460
Procedure: as §1, §2, §3

[4] = system: DU145 (prostate cancer cell); assay: Measurement of cellular proliferation, DU145 cells; type: cell-based; conditions: DU 145, 48 hours
Procedure: as §1, §2, §3

IC50 ([1]; FIG. 6B, 48 hours, read-out: IC50 for inhibition of PC3 proliferation): 14 µM
IC50 ([1]; PC-3, 48 hours, read-out: PROLIFERATION IC50 PC-3): 15 µM
IC50 ([2]; EGTA chelation of extracellular Ca2+ considered 100% inhibition, read-out: IC50 for blocking Ca2+ entry, LNCaP cells): 3000 nM
IC50 [4]: 19 µM
Structure (SMILES): COc1ccc(CCN2CCC[C@H]2COC(c2ccccc2)c2ccc(Cl)cc2)cc1 (some centres unmarked) [TH-1177]
Effect on increase in [Ca2+]i stimulated by thapsigargin ([2]; LNCaP, 300 nM thapsigargin, drug added before stimulus): dose dependent inhibition
Effect on rise in [Ca2+]i stimulated by ATP ([2]; LNCaP, 1 mM ATP, 10 μM TH-1177 added prior): inhibited
Effect on release of Ca2+ from the internal storage pool ([2]; LNCaP, EGTA in medium, 1 mM ATP): no effect
IC50 [3]: 15 µM
